Experimental data: patent publication US20240140941A1, “DERIVATIVE OF 2,5-DIKETOPIPERAZINE COMPOUND, AND PREPARATION METHOD THEREFOR, PHARMACEUTICAL COMPOSITION THEREOF AND USE THEREOF” (DALIAN WZ PROBIOTICS AD HEALTH CO., LTD, priority 2020, published 2024)
Structures can show the parent of a compound that is named as a salt. Where two headings read alike, the source gives them in different places. Blank lines part the entries; values can stand above or below the molecule they belong to.

Legend:
NCI-H460 = experiment: Inhibition test on cell proliferation (MTT), NCI-H460; format: cell-based, human
Experimental: (§1) Tumor cells (NCI-H460, BxPC-3, HT-29, HCC-LM3) in the logarithmic growth phase were digested, centrifuged, and the supernatants were removed. Cells were resuspended by adding fresh culture medium, and counted using a cell counting plate. 100 μL of culture medium (containing cells) was added to a 96-well plate according to the standard of 2000 to 6000 cells per well and incubated in an incubator (37° C., 5% CO2) for 24 hours. After the cells were completely adhered to the wall, the test sample and Plinabulin were diluted to different concentrations using fresh culture medium, and 4 wells were set for each concentration. After 72 hours of drug treatment, the culture medium was removed, and 20 μL of MTT at a concentration of 5 mg/mL was added to each well. After 3-4 hours in the incubator, the MTT was discarded, and 100 μL of DMSO was added to each well, and placed in a 96-well plate shaker to completely dissolve the purple formazan. Subsequently, the absorbance (OD value) was detected at a wavelength of 490 nm using a microplate reader. The experiment also required setting up zero-setting wells (blank culture medium, MTT, DMSO). Cell inhibition rate=1−(OD value of drug-dosed group−OD value of zero-setting group)/(OD value of blank group−OD value of zero-setting group)×100%.

BxPC-3 = experiment: Inhibition test on cell proliferation (MTT), BxPC-3; format: cell-based, human; conditions: read-out: IC50 (nM) BxPC-3
Experimental: as §1

HCC-LM3 = experiment: Inhibition test on cell proliferation (MTT), HCC-LM3; format: cell-based, human; conditions: read-out: IC50 (nM) HCC-LM3
Experimental: as §1

HT-29 = experiment: Inhibition test on cell proliferation (MTT), HT-29; format: cell-based, human; conditions: 72 hours of drug treatment
Experimental: as §1

[1] = 72 hours of drug treatment, MTT, hydrochloride, read-out: IC50 (nM) NCI-H460
[2] = 72 hours of drug treatment, MTT, hydrochloride
[3] = 72 hours of drug treatment, MTT, mesylate, read-out: IC50 (nM) NCI-H460
[4] = 72 hours of drug treatment, MTT, mesylate
[5] = Homo sapiens, NCI-H460, 72 h, 72 hours of drug treatment, MTT, read-out: IC50 (nM) NCI-H460
[6] = Homo sapiens, BXPC-3, 72 h, 72 hours of drug treatment, MTT
[7] = Homo sapiens, HCCLM3, 72 h, 72 hours of drug treatment, MTT

Structure (SMILES): CC(C)c1c(/C=c2\[nH]c(=O)/c(=C/c3cccc(F)c3)[nH]c2=O)ncn1CCCN1CCO[C@@H](C)C1 [PLN-2-57-1, (3Z,6Z)-3-(3-Fluorophenyl)methylene-6-(5-isopropyl-1-(3-S)—(−2-methylmorpholinyl)propylimidazol-4-yl)methylene)piperazine-2,5-dione, hydrochloride]
IC50 (NCI-H460; [1]): 17.5 ± 0.71 nM
IC50 (BxPC-3; [2]): 14.1 ± 1.23 nM
IC50 (HCC-LM3; [2]): 12.9 ± 1.61 nM
IC50 (HT-29; hydrochloride): 10.6 ± 3.68 nM

Structure (SMILES): CC(C)c1c(/C=c2\[nH]c(=O)/c(=C/c3cccc(F)c3)[nH]c2=O)ncn1CCCN1CCO[C@H](C)C1 (as salt: hydrochloride) [PLN-2-56-1, (3Z,6Z)-3-(3-Fluorophenyl)methylene-6-(5-isopropyl-1-(3-(R)-(2-methylmorpholinyl)propylimidazol-4-yl)methylene)piperazine-2,5-dione, hydrochloride]
melting point: 232.8 to 234.8 °C

Structure (SMILES): CC(C)c1c(/C=c2\[nH]c(=O)/c(=C/c3cccc(F)c3)[nH]c2=O)ncn1CCCN1CCO[C@H](C)C1 [PLN-2-56-1, (3Z,6Z)-3-(3-Fluorophenyl)methylene-6-(5-isopropyl-1-(3-(R)-(2-methylmorpholinyl)propylimidazol-4-yl)methylene)piperazine-2,5-dione, hydrochloride]
IC50 (NCI-H460; [1]): 7.69 ± 0.28 nM
IC50 (BxPC-3; [2]): 4.99 ± 0.19 nM
IC50 (HCC-LM3; [2]): 4.72 ± 0.73 nM
IC50 (HT-29; hydrochloride): 4.43 ± 0.13 nM

Structure (SMILES): CC(C)c1c(/C=c2\[nH]c(=O)/c(=C/c3ccc(F)c(F)c3)[nH]c2=O)ncn1CCCN1CCOCC1 [PLN-2-63-2, (3Z,6Z)-3-(3,4-Difluorophenyl)methylene-6-((5-isopropyl-1-(3-morpholinyl)propylimidazol-4-yl)methylene)piperazine-2,5-dione, mesylate]
IC50 (NCI-H460; [3]): 95.9 ± 3.66 nM
IC50 (BxPC-3; [4]): 50.9 ± 6.75 nM
IC50 (HCC-LM3; [4]): 69.5 ± 4.26 nM

Structure (SMILES): CC(C)c1c(/C=c2\[nH]c(=O)/c(=C/c3cccc(F)c3)[nH]c2=O)ncn1CCCN1CCOCC1 [PLN-2-9-2, mesylate]
IC50 (NCI-H460; [3]): 8.49 ± 0.72 nM
IC50 (BxPC-3; [4]): 5.14 ± 0.52 nM
IC50 (HCC-LM3; [4]): 6.08 ± 0.51 nM
IC50 (HT-29; mesylate): 5.84 ± 1.66 nM

Structure (SMILES): CCCC(=O)N1CCN(CCCn2cnc(/C=c3\[nH]c(=O)/c(=C/c4cccc(F)c4)[nH]c3=O)c2C(C)C)CC1 [PLN-2-66, (3Z,6Z)-3-(3-Fluorophenyl)methylene-6-(5-isopropyl-1-(3-(4-(n-butyryl)piperazinyl)propylimidazol-4-yl)methylene)piperazine-2,5-dione]
IC50 (NCI-H460; Homo sapiens, NCI-H460, 72 h, read-out: IC50 (nM) NCI-H460, 72 hours of drug treatment, MTT): 40.3 ± 3.72 nM
IC50 (BxPC-3; Homo sapiens, BXPC-3, 72 h): 30.4 ± 0.35 nM
IC50 (HCC-LM3; Homo sapiens, HCCLM3, 72 h): 43.9 ± 7.94 nM

Structure (SMILES): CC(C)c1c(/C=c2\[nH]c(=O)/c(=C/c3cccc(C(=O)c4ccc(F)cc4)c3)[nH]c2=O)ncn1CCCN1CCOCC1 [PLN-2-1-2, (3Z,6Z)-3-(3-(p-Fluorobenzoyl)phenyl)methylene-6-((5-isopropyl-1-(3-morpholinyl)propylimidazol-4-yl)methylene)piperazine-2,5-dione, mesylate]
IC50 (NCI-H460; [5]): 1.95 ± 0.08 nM
IC50 (BxPC-3; [6]): 1.33 ± 0.19 nM
IC50 (HCC-LM3; [4]): 1.85 ± 0.27 nM
IC50 (HT-29; Homo sapiens, HT-29, 72 h): 1.42 ± 0.46 nM

Structure (SMILES): CC(C)c1c(/C=c2\[nH]c(=O)/c(=C/c3cc(F)cc(F)c3)[nH]c2=O)ncn1CCCN1CCOCC1 [PLN-2-62-2, (3Z,6Z)-3-(3,5-Difluorophenyl)methylene-6-((5-isopropyl-1-(3-morpholinyl)propylimidazol-4-yl)methylene)piperazine-2,5-dione, mesylate]
IC50 (NCI-H460; [3]): 4.6 ± 1.33 nM
IC50 (BxPC-3; [4]): 3.66 ± 1.15 nM
IC50 (HCC-LM3; [4]): 3.99 ± 0.08 nM
IC50 (HT-29; mesylate): 3.55 ± 0.04 nM

Structure (SMILES): O=c1[nH]/c(=C\c2ncn(CCCN3CCOCC3)c2C2CC2)c(=O)[nH]/c1=C\c1cc(F)ccc1F [PLN-2-8, (3Z,6Z)-3-(2,5-difluorophenyl)methylene-6-((5-cyclopropyl-1-(−3-morpholinyl)propylimidazol-4-yl)methylene)piperazine-2,5-dione]
IC50 (NCI-H460; [5]): 15.2 ± 2.82 nM
IC50 (BxPC-3; [6]): 8.8 ± 0.16 nM
IC50 (HT-29; Homo sapiens, HT-29, 72 h): 13.4 ± 2.08 nM

Structure (SMILES): CCC(=O)N1CCN(CCCn2cnc(/C=c3\[nH]c(=O)/c(=C/c4cccc(F)c4)[nH]c3=O)c2C(C)C)CC1 [PLN-2-65, (3Z,6Z)-3-(3-Fluorophenyl)methylene-6-(5-isopropyl-1-(3-(4-(propionyl)piperazinyl)propylimidazol-4-yl)methylene)piperazine-2,5-dione]
IC50 (NCI-H460; [5]): 17.4 ± 1.45 nM
IC50 (BxPC-3; [6]): 10.3 ± 2.18 nM
IC50 (HCC-LM3; [7]): 20.9 ± 0.97 nM

Structure (SMILES): CC(C)c1c(/C=c2\[nH]c(=O)/c(=C/c3cccc(C(=O)c4ccc(F)cc4)c3)[nH]c2=O)ncn1CCCN1CCN(C(=O)C2CCC2)CC1 [PLN-2-36, (3Z,6Z)-3-(3-(p-fluorobenzoyl)phenyl)methylene-6-((5-isopropyl-1-(3-N-cyclobutanoylpiperazinyl)propylimidazol-4-yl)methylene)piperazine-2,5-dione]
IC50 (NCI-H460; [5]): 4.31 ± 0.59 nM
IC50 (BxPC-3; [6]): 2.25 ± 1.22 nM
IC50 (HT-29; Homo sapiens, HT-29, 72 h): 2.97 ± 0.51 nM

Structure (SMILES): CC(=O)N1CCN(CCCn2cnc(/C=c3\[nH]c(=O)/c(=C/c4cccc(F)c4)[nH]c3=O)c2C(C)C)CC1 [PLN-2-64, (3Z,6Z)-3-(3-Fluorophenyl)methylene-6-(5-isopropyl-1-(3-(4-(acetyl)piperazinyl)propylimidazol-4-yl)methylene)piperazine-2,5-dione]
IC50 (NCI-H460; [5]): 18.5 ± 0.3 nM
IC50 (BxPC-3; [6]): 7.7 ± 0.39 nM
IC50 (HCC-LM3; [7]): 26.1 ± 2.14 nM

Structure (SMILES): CC(C)c1c(/C=c2\[nH]c(=O)/c(=C/c3cc(F)ccc3F)[nH]c2=O)ncn1CCCN1CCN(C)CC1 [PLN-2-24]
IC50 (NCI-H460; [5]): 28.6 ± 1.4 nM
IC50 (BxPC-3; [6]): 13.19 ± 0.07 nM

Second part, the molecule after the results:

IC50 (NCI-H460; [5]): 23.9 ± 1.02 nM
IC50 (BxPC-3; [6]): 15.3 ± 1.83 nM
IC50 (HT-29; Homo sapiens, HT-29, 72 h): 13.8 ± 3.08 nM
Structure (SMILES): CC(C)c1c(/C=c2\[nH]c(=O)/c(=C/c3cccc(C(=O)c4ccc(F)cc4)c3)[nH]c2=O)ncn1CCCN1CCN(C)CC1 [PLN-2-21, (3Z,6Z)-3-(3-(p-fluorobenzoyl)phenyl)methylene-6-((5-isopropyl-1-(3-N-methylpiperazinyl)propylimidazol-4-yl)methylene)piperazine-2,5-dione]

IC50 (NCI-H460; [3]): 11.2 ± 2.04 nM
IC50 (BxPC-3; [4]): 12.6 ± 0.96 nM
IC50 (HCC-LM3; [4]): 13.3 ± 4.02 nM
IC50 (HT-29; mesylate): 13.2 ± 2.15 nM
Structure (SMILES): O=c1[nH]/c(=C\c2ncn(CCCN3CCOCC3)c2C2CC2)c(=O)[nH]/c1=C\c1cccc(F)c1 [PLN-2-10-2, (3Z,6Z)-3-(3-Fluorophenyl)methylene-6-((5-cyclopropyl-1-(3-morpholinyl)propylimidazol-4-yl)methylene)piperazine-2,5-dione, mesylate]

IC50 (NCI-H460; [5]): 8.39 ± 0.58 nM
IC50 (BxPC-3; [6]): 3.73 ± 0.06 nM
IC50 (HCC-LM3; [7]): 7.7 ± 0.04 nM
Structure (SMILES): CC(CN1CCOCC1)Cn1cnc(/C=c2\[nH]c(=O)/c(=C/c3cccc(F)c3)[nH]c2=O)c1C(C)C (centres unmarked) [PLN-2-67, (3Z,6Z)-3-(3-Fluorophenyl)methylene-6-((5-isopropyl-1-(3-morpholinyl)-2-methylpropylimidazol-4-yl)methylene)piperazine-2,5-dione]

IC50 (NCI-H460; [5]): 33.5 ± 0.46 nM
IC50 (BxPC-3; [6]): 27.7 ± 0.94 nM
IC50 (HCC-LM3; [7]): 16.6 ± 0.66 nM
IC50 (HT-29; Homo sapiens, HT-29, 72 h): 25.3 ± 3.54 nM
Structure (SMILES): O=c1[nH]/c(=C\c2ncn(CCCN3CCOCC3)c2C2CC2)c(=O)[nH]/c1=C\c1ccccc1 [PLN-2-6, (3Z,6Z)-3-benzylidene-6-((5-cyclopropyl-1-(−3-morpholinyl)propylimidazol-4-yl)methylene)piperazine-2,5-dione]

IC50 (NCI-H460; [5]): 25.6 ± 9.64 nM
IC50 (BxPC-3; [6]): 5.92 ± 3.74 nM
IC50 (HT-29; Homo sapiens, HT-29, 72 h): 11.1 ± 1.87 nM
Structure (SMILES): CC(C)c1c(/C=c2\[nH]c(=O)/c(=C/c3cccc(C(=O)c4ccc(F)cc4)c3)[nH]c2=O)ncn1CCCN1CCNCC1 [PLN-2-16, (3Z,6Z)-3-(3-(p-fluorobenzoyl)phenyl)methylene-6-((5-isopropyl-1-(3-piperazinyl)propylimidazol-4-yl)methylene)piperazine-2,5-dione]

IC50 (NCI-H460; [5]): 21.6 ± 0.52 nM
IC50 (BxPC-3; [6]): 9.09 ± 0.89 nM
Structure (SMILES): CC(C)c1c(/C=c2\[nH]c(=O)/c(=C/c3cccc(C(=O)c4ccc(F)cc4)c3)[nH]c2=O)ncn1CCCN1CCN(C(=O)NC2CCCC2)CC1 [PLN-2-46, (3Z,6Z)-3-(3-(p-fluorobenzoyl)phenyl)methylene-6-((5-isopropyl-1-(3-N-cyclopentylaminocarbonylpiperazinyl)propylimidazol-4-yl)methylene)piperazine-2,5-dione]

IC50 (NCI-H460; [5]): 6.56 ± 0.32 nM
IC50 (BxPC-3; [6]): 3.62 ± 0.48 nM
Structure (SMILES): CC(C)c1c(/C=c2\[nH]c(=O)/c(=C/c3cccc(C(=O)c4ccc(F)cc4)c3)[nH]c2=O)ncn1CCCN1CCN(C(=O)NC2CCCCC2)CC1 [PLN-2-47, (3Z,6Z)-3-(3-(p-fluorobenzoyl)phenyl)methylene-6-((5-isopropyl-1-(3-N-cyclohexylaminocarbonylpiperazinyl)propylimidazol-4-yl)methylene)piperazine-2,5-dione]
